Where “and” joins values, the source holds several entries; their conditions need not be identical. Equal values may be shown once. Read-outs that look alike come from different tables or passages of the source.
How the values were obtained:
[1] = days 18, 21, 24, 27; for BWC = body weight change: day in parentheses in cell
Experimental: The animals subjected to the experiment, generally mice, are subcutaneously grafted bilaterally with 30 to 60 mg of a tumor fragment on day 0. The animals bearing tumors are randomized based on their tumor size before being subjected to the various treatments and controls. Chemotherapy begins when tumors have reached a predetermined size after grafting, depending on the type of tumor, and the animals are observed every day. […] The groups are then weighed once or twice a week until the end of the trial.
The selected tumor model was a transplantable human T-cell acute lymphoblastic leukemia (T-ALL) cell line, DND-41, implanted in SCID mice.
Hu38SB19 was formulated in phosphate buffer saline, without Ca^2+ and Mg^2+, pH7.4. Hu38SB19 was administered intravenously on days 18, 21, 24, 27 after tumor implantation.

[2] = test system: human T-cell acute lymphoblastic leukemia (T-ALL) cell line, DND-41; experiment: Antitumor efficacy against advanced DND-41 tumors implanted in SCID mice; assay type: in vivo; details: days 18, 21, 24, 27; for TFS = tumor free survivors: day 160; for T-C = tumor growth delay: median time to reach 750 mg
Experimental: This efficacy may be quantified, for example, by the log10 cell kill, which is determined according to the following formula:
log10 cell kill=T−C (days)/3.32×Td
in which T−C represents the tumor growth delay, which is the median time in days for the tumors of the treated group (T) and the tumors of the control group (C) to reach a predetermined value (1 g for example), and Td represents the time in days needed for the volume of the tumor to double in the control animals [T. H. Corbett et al., Cancer, 40: 2660-2680 (1977); F. M. Schabel et al., Cancer Drug Development, Part B, Methods in Cancer Research, 17: 3-51, New York, Academic Press Inc. (1979)]. A product is considered to be active if log10 cell kill is greater than or equal to 0.7. A product is considered to be very active if log10 cell kill is greater than 2.8.
The tumors are measured 1 to 5 times a week, depending on the tumor doubling time, until the tumor reaches approximately 2 g, or until the animal dies (if this occurs before the tumor reaches 2 g). The animals are necropsied immediately after euthanasia or death.
Tumor doubling time=3.4 days.

[3] = Palmo Ara-C 22.3 mg/kg/inj SC (total 89.2)
[4] = Palmo Ara-C 36.0 mg/kg/inj SC (total 144.0)
[5] = Palmo Ara-C 58.0 mg/kg/inj SC (total 232.0)
[6] = hu38SB19 40.0 mg/kg/inj IV (total 160.0)

CCCCCCCCCCCCCCCC(=O)Nc1ccn([C@@H]2O[C@H](CO)[C@@H](O)[C@@H]2O)c(=O)n1 [Palmo Ara-C]
BWC = body weight change [1, 3]: −0.5 (32)
BWC = body weight change [1, 4]: −4.6 (30)
BWC = body weight change [1, 5]: −6.1 (31)
BWC = body weight change ([1]; Palmo Ara-C 96.3 mg/kg/inj SC (total 385.2)): −26.6 (31)
highest nontoxic dose (HNTD) ([1]; Palmo Ara-C alone, SC): 58.0 mg/kg/inj
comment (activity class) [2, 3]: Active
log10 cell kill [2, 3]: 2.0
TFS = tumor free survivors [2, 3]: 0/6
T-C = tumor growth delay [2, 3]: 22.1 days
log10 cell kill [2, 4]: 4.3
TFS = tumor free survivors [2, 4]: no TFS and 0/6
T-C = tumor growth delay [2, 4]: 48.6 days
log10 cell kill [2, 5]: 5.4
comment (activity class) ([2]; Palmo Ara-C 58.0 mg/kg/inj SC (total 232.0), HNTD): HNTD—highly active
TFS = tumor free survivors [2, 5]: 3/6
T-C = tumor growth delay [2, 5]: 60.5 days

hu38SB19: humanized 38SB19 anti-CD38 antibody; VH SEQ ID NO: 66, VL chosen from SEQ ID NOS: 62 and 64
drug death (deaths/mice treated) [1, 6]: 0/6
BWC = body weight change [1, 6]: −2.1 (19)
log10 cell kill [2, 6]: 0.5
TFS = tumor free survivors [2, 6]: 0/6
comment (activity class) ([2]; hu38SB19 40.0 mg/kg/inj IV (total 160.0), highest dose tested, 40 mg/kg): HDT—Inactive
comment (activity class) ([2]; hu38SB19 40.0 mg/kg/inj IV (total 160.0), highest dose tested, listed as hu38 DB19): not active
T-C = tumor growth delay [2, 6]: 6.1 days
